Assay results from patent US10738002B2, “Halogenated benzotropolones as ATG4B inhibitors” (Universiteit Antwerpen, priority 2016, dated 2020).
Where two headings read alike, the source gives them in different places.

Experiments:
[1] = test system: autophagy; conditions: cited from earlier work
[2] = test system: autophagy; experiment: Cellular screening assay for autophagy inhibitors (in our hands); type: cell-based
[3] = Metabolic stability in mouse microsomes; type: in vitro ADME; conditions: for recovery at 30 min, 10 µM: mouse liver microsomes, read-out: Microsomal stability (mouse) recovery of parent compound after 30 min (%); for microsomal stability, comparison in words: mouse microsomes
Experimental: A 5 mM compound solution was prepared in DMSO. A mixture of 713 μL milliQ water (Milli-Q Direct 8, Merck Millipore), 200 μL 0.5 M phosphate buffer (BD Diagnostic Systems, 257385), 50 μL NADPH regenerating system solution A (BD Biosciences), 10 μL NADPH regenerating system solution B (BD Biosciences) and 2 μL compound solution was prepared and heated for 5 min at 37° C. 25 μL of liver microsomes (Corning B.V. Life Sciences) was added to the mixture and 20 μL samples were withdrawn at 0, 15, 30, 60, 120, 240 and 360 minutes. 80 μL (4×20 μL) of cold acetonitrile (Sigma-Aldrich) was added to the samples on ice for 10 minutes. Afterwards, the mixtures were centrifuged at 13000 rpm for 5 minutes at 4° C. A volume of 75 μL of an acetonitrile/water (10/90) mixture was added to 25 μL supernatant and the obtained samples were analyzed by LC-MS/MS in triplicate.

[4] = Plasma stability in mouse plasma; type: in vitro ADME; conditions: for recovery at 1 h, 50 µM: Non Swiss Albino, 37° C., read-out: Plasma stability (mouse) recovery of parent compound after lh (%); for plasma stability compared to the non-halogenated analogues: comparison in words
Experimental: A 10 mM compound solution was prepared in DMSO (Acros). A 5 μL aliquot was added to 995 μL of mouse plasma (Non Swiss Albino Mouse Plasma, sodium citrate, DivBioScience, IMS-N) to obtain a final solution of 50 μM. The mixture was gently shaken for 6 hours at 37° C. Aliquots of 100 μL were taken at various time points (0, 30, 60, 120, 180, 360 minutes) and diluted with 400 μL of cold methanol (Sigma-Aldrich) (stored at 4° C.). The suspension was centrifuged at 14000 rpm for 5 minutes. Afterwards, 50 μL of the supernatant was diluted with 950 μL of methanol and analyzed with LC-MS/MS (Waters Acquity H-class UPLC system with ion trap mass spectrometer, Bruker Daltonics Esquire 3000 plus, and Agilent 1100 Series LC system). The samples were analyzed in triplicate. A standard curve was plotted using compound concentrations of 3.12-100 μM in mouse plasma.

[5] = molecular target: T1, HsAtg4B (Homo sapiens, UniProt Q9Y4P1); experiment: SDS-PAGE-based screening assay for Atg4B inhibition (cleavage of LC3B-GST); type: biochemical; conditions: 500 μM compound concentration; LC3B-GST substrate, 6 minutes; read-out: SDS-PAGE Enzyme inhibition (%)
T1 sequence (Q9Y4P1 1-393): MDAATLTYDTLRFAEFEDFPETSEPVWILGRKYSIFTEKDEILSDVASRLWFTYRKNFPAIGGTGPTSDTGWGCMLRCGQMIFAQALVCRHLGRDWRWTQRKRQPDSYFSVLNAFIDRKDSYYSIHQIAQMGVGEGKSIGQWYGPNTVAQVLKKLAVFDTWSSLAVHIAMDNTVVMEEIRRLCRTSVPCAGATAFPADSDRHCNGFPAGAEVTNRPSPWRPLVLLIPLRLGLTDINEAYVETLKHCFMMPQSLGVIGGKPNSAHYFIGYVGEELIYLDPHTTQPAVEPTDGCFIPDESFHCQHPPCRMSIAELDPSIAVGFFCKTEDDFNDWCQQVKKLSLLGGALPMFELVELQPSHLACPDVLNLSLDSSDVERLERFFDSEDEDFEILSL
Experimental: For each assay, fresh aliquots of enzyme and substrate were thawn, and fresh buffer was used. All substrate and enzyme dilutions were made in LoBind Eppendorf® tubes. Buffer used in the following methods for making appropriate dilutions consisted of 50 mM Tris-HCl pH 7.4, 150 mM NaCl, 2 mM DTT and 0.1% TWEEN 20, freshly prepared at the day of the experiment. 10 μL of Laemmli Sample Buffer was added to each sample to stop enzymatic cleavage of LC3B-GST and the samples were boiled for 4 minutes. The samples were loaded onto a NuPAGE® Novex 12 Bis-Tris 1.0 mm 15 well gel after termination of the enzymatic reaction. A Thermo-Scientific® PageRuler Prestained Protein Ladder was used as a reference for molecular weights of the separated proteins. […] Lane densities were quantified using Totallab Quant® software.

[6] = test system: Jurkat T-cells; experiment: CYTO-ID-based phenotypical screening for autophagy inhibition; type: cell-based; conditions: Homo sapiens, tested at 10 mM concentration + 10 μM everolimus, everolimus-treated = 1 (normalized), control 0.37, read-out: CYTOID assay (autophagy relative to the everolimus-treated group)
Experimental: Final compounds were screened for autophagy/Atg4B inhibition in 3 different assays: a gel-based screening for Atg4B inhibition, a CYTO-ID-based phenotypical screening for autophagy inhibition and a luciferase reporter assay for assessment of intracellular Atg4B inhibition. Initially, all compounds were evaluated using the SDS-PAGE-based screening assay. Each test compound was incubated with [LC3B-GST], a fusion protein of LC3B and glutathione-S-transferase, and Atg4B in Tris-HCl buffer for a fixed time period. Afterwards, residual fusion protein and cleavage products were separated by gel electrophoresis and quantified using optical densitometry. Based on the % of uncleaved substrate, compound activity was expressed as % enzyme inhibition at 500 μM compound concentration. A set of compounds was then subjected to a CYTO ID-based assay (Stankov et al., 2014). This assay is based on selective labelling of autophagic vacuoles in Jurkat T-cells. Quantification of the stained autophagic compartments can then be used for assessment of autophagy modulation. Autophagy induction was obtained by addition of 10 μM everolimus in EtOH in the presence of 10 μM test compound and autophagy inhibition was monitored as a decline in autophagic vacuoles and the corresponding fluorescent signal. […]

SMILES	recovery at 1 h, 50 µM [4]	recovery at 30 min, 10 µM ([3]; 37° C.)	microsomal stability, comparison in words [3]	plasma stability compared to the non-halogenated analogues [4]	further results
O=C(O)c1cc(O)c(=O)c2c(O)c(O)ccc2c1 [Shu et al.]	0%	–	–	–	autophagy inhibition reported by Shu et al. [1]: weak autophagy inhibitor; in cellulo autophagy inhibition (reported) ([1]; in cellulo): no in cellulo autophagy inhibition; activity in a cellular screening assay for autophagy inhibitors [2]: did not show activity; recovery at 30 min, 10 µM ([3]; value obtained using linear interpolation): 100%
NC(=O)c1cc(O)c(=O)c2c(O)c(O)c(F)cc2c1 [Compound 31, 2-fluoro-3,4,6-trihydroxy-5-oxo-5H-benzo[7]annulene-8-carboxamide]	–	–	–	–	inhibition at 500 µM [5]: 39.9%
Cn1cnc(N)c2ncnc1-2 [Compound 3-MA, 3-Methyladenine, reference compound]	–	–	–	–	activity at 10000 µM [6]: 57%
O=C(O)c1cc(O)c(=O)c2c(O)c(O)c(Br)cc2c1 [Compound 36, 2-bromo-3,4,6-trihydroxy-5-oxo-5H-benzo[7]annulene-8-carboxylic acid]	19 ± 1%	100%	substantial increase	substantial increase	–
CCCCOC(=O)c1cc(O)c(=O)c2c(O)c(O)c(Br)cc2c1 [Compound 40, Butyl 2-bromo-3,4,6-trihydroxy-5-oxo-5H-benzo[7]annulene-8-carboxylate]	87 ± 4%	23 ± 7%	substantial increase	substantial increase	–
